According to publication PMC9414676, “Experimental Studies Indicate That ST-2223, the Antagonist of Histamine H3 and Dopamine D2/D3 Receptors, Restores Social Deficits and Neurotransmission Dysregulation in Mouse Model of Autism” (Pharmaceuticals, 2022):

Legend:
[1] = target: T1, hH3R (Homo sapiens, UniProt Q9Y5N1); experiment: [3H]Nα-methylhistamine binding assay, membranes of HEK cells stably expressing hH3R
T1 construct: expressed in transfected cells
Method: In vitro, ST-2223 was evaluated for its H3R affinity on membrane preparations of HEK-293 cells, which stably express the hH3R, by [^3H]N^α-methylhistamine displacement assays.

[2] = system: BTBR mice; experiment: Social approach test (SAT), social novelty preference (novel mouse vs familiar mouse); format: in vivo; settings: for preference to novel mouse (NM) over familiar mouse (FM) vs VEH-treated BTBR mice: p < 0.001
Method: (§1) All the mice were randomly divided into nine groups of 5–7 mice each. The mice were injected intraperitonially once daily for 21 days with different doses of ST2223 (2.5, 5, and 10 mg/kg, i.p.), ARP 1 mg/kg or vehicle (1% DMSO in 0.9% normal saline). Group I, B6 mice were injected with vehicle served as control. Group II, BTBR mice were treated with vehicle. Groups III–V, BTBR mice received i.p. injections of different doses of ST2223 (2.5, 5, and 10 mg/kg, i.p.), respectively. Group VI, BTBR mice were injected with ARP (1 mg/kg, i.p.). For abrogation studies, Group VII, BTBR mice were treated with ST2223 (5 mg/kg, i.p.) along with RAM (10 mg/kg, i.p.). Group VIII, B6 mice were co-injected with vehicle and RAM (10 mg/kg, i.p). All treatments and vehicle (VEH) were administered 30–45 min before each behavioral test. The doses of these drugs were selected based on previous reports. Behavioral testing was performed between 9:00 am and 3:00 pm in an order randomized by group and in the following sequence: social approach test (SAT) and open field locomotor test (OFL). The chronic treatment started one week before the behavioral test and was continued for a total of 21 days as described above (Figure 7). Following behavioral tests, i.e., on day 21 of systemic treatment, five of the animals were sacrificed. The animals were deeply anesthetized with pentobarbital (40 mg/kg, i.p., body weight). To wash out the blood, cardiac perfusion was carried out using 0.01 M phosphate-buffered saline (PBS) at pH 7.4. The brains were quickly removed and placed on an ice plate, where the cerebellum, hippocampus, prefrontal cortex, and striatum were excised from the brain and snap-frozen in liquid nitrogen for later LC-MS/MS analysis.
The social approach test (SAT) was performed using an automated three-chamber device (EthoVision® Software, Noldus, The Netherlands) as previously described. The transparent polycarbonate chamber is rectangular and is composed of three interconnected partitions (homemade), which are separated by two sliding doors. […] For 10 min, the test mouse was allowed to explore all three chambers and cups, and the time spent interacting with NO and NM (sniffing) was automatically recorded by EthoVision® Software. […] The study mouse is allowed to explore the three chambers for 10 min, and the time spent for interacting with both mice was automatically recorded, to assess social novelty preference. […] To allow the direct comparison of social behavior between the treated groups, the sociability index (SI) and social novelty index (SNI) were calculated with the following formula, as previously described: SI=(Time exploring NM−Time exploring NO)/(Time exploring NM+Time exploring NO) SNI=(Time exploring NM−Time exploring FM)/(Time exploring NM+Time exploring FM)

[3] = system: dopamine levels in BTBR mice brain; experiment: Dopamine levels by LC-MS/MS in brain regions; format: in vivo; set-up: key to Dopamine level: ↔: No significant alterations; ↑: significant increase; ↑↑: additional significant increase vs. ST-2223-treated mice; ↓: significant decrease; settings: for Dopamine level: ST-2223 5 mg/kg i.p. chronic, vs VEH-treated BTBR mice
Method: as §1
Perfusion was done on anesthetized animals using 1X PBS as described previously. Different regions of the brain were snap frozen. Frozen tissues were then weighed and homogenized in a 10-fold volume of acetonitrile. For 50mg of tissue, 500 µL of acetonitrile and Internal standard mix were added and homogenized. Homogenates were centrifuged at 15,000 rcf for 15 min at 4 °C. Tissue levels of dopamine, acetylcholine, histamine, and their metabolites were assessed using LC-MS/MS. LC-MS/MS analysis was conducted utilizing Waters BEH C18 COLUMN (2.1 × 100 mm, 1.7 µm) using Waters Acquity UPLC Binary Solvent Manager and FTN Sample Manager. The system was run in gradient mode with mobile phase A consisting of LC-MS GRADE WATER + 0.1% FORMIC ACID and mobile phase B consisting of 100% ACETONITRILE. Mobile phase was duly filtered through 0.2 µm filter and degassed ultrasonically for 15 min prior to use. Separations were performed at room temperature with 0.3 mL/min flow rate gradient starting with 90% of A for up to 0.5 min. Then, % of A was decreased gradually until it reached 20% at 2.5 min after which at 3 min %A was brought back to the initial condition and left for equilibration for 2 more minutes before the next injection (total 5 min run time). The injection volume was kept at 1 µL. Mass spectrometric detection was performed in multiple reaction monitoring (MRM) mode with positive electrospray ionization (ESI+) on Xevo TQS mass spectrometer (Waters, Milford, MA) equipped with an electrospray ionization (ESI) source and triple quadrupole mass analyzer. MRM transitions and instrument parameters were set by tuning the instrument by infusing each analyte. MRM transitions taken for quantification were 146.2 > 87.1 for Acetylcholine, 112.2 > 95.2 for Histamine, 154.1 > 137.2 for Dopamine, 150.2 > 91.3 for Acetylcholine D4, and […] > 99.3 for Histamine D4. Capillary Voltage, Source Offset, Source Temperature, De solvation Temperature, Cone Gas Flow, De solvation Gas Flow, Collision Gas Flow, Nebulizer Gas Flow were set as 3.0 (kV), 60.0 (V), 150 (°C), 550 (°C), 150 (L/Hr), 1000 (L/Hr), 0.13 (mL/min), and 7 (Bar), correspondingly. […]

[4] = target: EeAChE (Electrophorus electricus, UniProt O42275); experiment: Acetylcholine esterase inhibition (preliminary data); format: biochemical, electric eel
EeAChE, sequence (O42275 24-633): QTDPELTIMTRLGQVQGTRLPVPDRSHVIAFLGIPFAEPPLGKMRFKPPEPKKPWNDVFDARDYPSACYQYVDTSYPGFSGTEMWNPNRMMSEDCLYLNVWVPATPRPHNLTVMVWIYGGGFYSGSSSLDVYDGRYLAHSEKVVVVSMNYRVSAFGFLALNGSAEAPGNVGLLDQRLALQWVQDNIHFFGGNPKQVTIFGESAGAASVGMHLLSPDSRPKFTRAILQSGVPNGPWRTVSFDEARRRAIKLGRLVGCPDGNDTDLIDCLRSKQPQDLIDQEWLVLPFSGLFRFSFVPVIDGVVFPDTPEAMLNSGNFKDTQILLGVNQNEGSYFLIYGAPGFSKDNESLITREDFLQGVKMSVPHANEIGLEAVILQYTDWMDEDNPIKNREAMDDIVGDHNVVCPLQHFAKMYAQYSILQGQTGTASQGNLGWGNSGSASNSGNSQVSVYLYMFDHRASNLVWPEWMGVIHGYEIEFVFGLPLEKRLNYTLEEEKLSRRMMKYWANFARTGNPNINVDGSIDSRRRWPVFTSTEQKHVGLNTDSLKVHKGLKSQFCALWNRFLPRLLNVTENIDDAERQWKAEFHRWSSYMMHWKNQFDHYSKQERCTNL

T1 sequence (Q9Y5N1 whole entry): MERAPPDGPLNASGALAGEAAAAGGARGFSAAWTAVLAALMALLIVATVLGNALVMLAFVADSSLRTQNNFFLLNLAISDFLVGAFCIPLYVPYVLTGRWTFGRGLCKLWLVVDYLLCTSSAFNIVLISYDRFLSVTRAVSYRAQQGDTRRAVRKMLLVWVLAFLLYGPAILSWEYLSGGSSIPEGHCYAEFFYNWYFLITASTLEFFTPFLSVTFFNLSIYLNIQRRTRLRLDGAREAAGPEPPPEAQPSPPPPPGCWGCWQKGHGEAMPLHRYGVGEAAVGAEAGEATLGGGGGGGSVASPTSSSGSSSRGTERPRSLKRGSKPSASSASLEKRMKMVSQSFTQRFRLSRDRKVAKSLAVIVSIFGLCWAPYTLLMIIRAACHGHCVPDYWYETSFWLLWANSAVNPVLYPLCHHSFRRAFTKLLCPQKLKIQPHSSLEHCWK

For COc1ccccc1N1CCN(CCCCNC(=O)c2ccc3cc(OCCCN4CCCCC4)ccc3c2)CC1 [ST-2223, N-(4-(4-(2-methoxyphenyl)piperazin-1-yl)butyl)-6-(3-(piperidin-1-yl)propoxy)-2-naphthamide], the Ki [1] was 4.6 nM, the “social novelty index (SNI)” value ([2]; ST-2223 5 mg/kg i.p. chronic, no significant difference to control B6) was “significantly improved social novelty performance” and the “preference to novel mouse (NM) over familiar mouse (FM) vs VEH-treated BTBR mice” value ([2]; ST-2223 5 mg/kg i.p. chronic) was “enhanced preference to stranger NM over FM”. The “preference to novel mouse (NM) over familiar mouse (FM) vs VEH-treated BTBR mice” value ([2]; ST-2223 10 mg/kg i.p. chronic) was “enhanced preference to stranger NM over FM”, the Dopamine level ([3]; Cerebellum) was “↓ ^b” and the Dopamine level ([3]; Hippocampus) was “↔”. The Dopamine level ([3]; Prefrontal cortex) was “↑ ^b”, the Dopamine level ([3]; Striatum) was “↑ ^b” and the “dopamine levels” value ([3]; prefrontal cortex and striatum, ST-2223 5 mg/kg chronic, p < 0.05) was “significantly increased the dopamine levels in both regions”. The “inhibition of acetylcholine esterase enzyme (eeAChE), in words” value [4] was “neglectful inhibition”.
